# Results taken from publication PMC8373237 (Antimicrobial Agents and Chemotherapy, 2021).
# Where “and” joins values, the source holds several entries; their conditions need not be identical. Equal values may be shown once. Read-outs that look alike come from different tables or passages of the source. Marks after values point to notes of the source that are not given here. Square brackets hold non-standard residues; d marks the D form. Peptide text beside a SMILES is read from it. Nphe = O=C(O)CNCc1ccccc1; NPrGly = CCCNCC(=O)O
# How the values were obtained:
# [1] = test system: Salmonella flagellar T3SS (FliC, FliD secretion); assay type: cell-based, Salmonella enterica Typhimurium; design: key to Fla fliC (Table 2): NE: No effect observed
# P. aeruginosa (PAO1) = assay type: cell-based, Pseudomonas aeruginosa
# [2] = test system: Y. enterocolitica Ysa T3SS (YspF secretion); assay type: cell-based, Yersinia enterocolitica
# [3] = test system: P. aeruginosa PA103 T3SS (ExsE secretion); assay type: cell-based, Pseudomonas aeruginosa
# [4] = test system: Y. pseudotuberculosis Ysc T3SS (YopE secretion); assay type: cell-based, Yersinia pseudotuberculosis
# Kinetic solubility = assay type: physicochemical
# Description: […] Then, […] of 15 mM stock compound was added to make a solution of 120 μM final concentration with 0.8% DMSO. The solution was shaken at 37°C for ∼2 h. The solution was passed over a 0.7- μM glass fiber filter. Then, the solution was diluted 1:4 in acetonitrile to crash out any proteins. The solution was centrifuged at 500 × g for 10 min. Avoiding the pellet, 10 μl of supernatant was added to a fresh plate with 90 μl of acetonitrile. The final dilution is 40 times lower. Next, 10 μl of 40× dilution of solution was injected on the Orbi-trap. A 1 μM standard was used for the ratiometric comparison, and the assay was done in triplicate.
# [5] = test system: C. trachomatis serovar L2 in HeLa cells; assay: Chlamydia infection of HeLa cells (primary and secondary infection); assay type: cell-based, Chlamydia trachomatis
# Description: Primary infections. HeLa cell monolayers were infected with C. trachomatis serovar L2 at a multiplicity of infection (MOI) of 1.0 in the presence of one of the following compounds at 9 μM: DMSO, 4EpDN, or 4EpDN 2Sar. Cells were incubated for 24 h in the presence of the above-listed compounds at 37°C and then fixed with 4% paraformaldehyde (PFA). Cells were stained for IncA (Chlamydia inclusion membrane marker), DNA (with DAPI), and MOMP (Chlamydia major outer membrane protein) simultaneously. This method of staining allows visualization of the inclusion independent of MOMP synthesis or transport. The percentage of cells infected (i.e., stained positively for the listed Chlamydia markers) in the presence of the compounds was quantified using confocal microscopy. Quantifications of inclusion take into account both DAPI staining and indirect immunofluoresence with an antibody to MOMP. Ten randomly selected fields of view were measured per experiment. The data represent three biological replicates.
# Secondary infections. HeLa cell monolayers were infected with C. trachomatis serovar L2 at an MOI of 1.0 in the presence of one of the following compounds at 9 μM: DMSO, 4EpDN, or 4EpDN 2Sar. Cells were incubated for 48 h in the presence of the above-listed compounds at 37°C. Infected cells were then lysed, and the lysate was applied to fresh HeLa monolayers to enumerate infectious particles. These secondary infections were fixed in 4% PFA at 24 hpi and were stained against MOMP and DNA. The infectious units per ml (IFU/ml) were calculated by averaging the number of infected cells in each of 10 randomly selected fields of view at ×40 magnification on a confocal microscope and multiplying this by the appropriate dilution and area factors. The data represent four biological replicates.
# HeLa cells = assay: Cytological profiling (CP); assay type: cell-based; details: concentration used in Chlamydia infection
# Description: Briefly, HeLa cells were cultured and seeded into 384-well plates at 2,500 cells/well. After 48 h, compounds were added using a Janus MDT robot (PerkinElmer). Two stain sets were used—stain set 1, Hoechst, EdUrhodamine, anti-phosphohistone H3, and GM130; stain set 2, Hoechst, fluorescein isothiocyanate (FITC)-alpha tubulin, rhodamine-phalloidin, and calnexin. For stain set 1, cells were incubated with 20 μM EdUrhodamine for 1 h prior to fixing in 4% formaldehyde solution in PBS for 20 min. Cells were then washed with PBS and permeabilized with 0.5% Triton X-100 in PBS for 10 min before blocking with 2% BSA in PBS solution for at least 1 h. Following this, cells were incubated with primary antibodies overnight at 4°C. The following day, excess primary antibody was washed off with PBS and Alexa-488, and Alexa-647 secondary antibodies and Hoechst solution were incubated for 1 h. Plates were washed with PBS and preserved with 0.1% sodium azide in PBS solution prior to imaging. For stain set 2, cells were fixed with a 4% formaldehyde solution in PBS for 20 min. Cells were then washed with PBS and permeabilized with 0.5% Triton X-100 in PBS for 10 min before blocking with 2% BSA in PBS solution for at least 1 h. Following this, cells were incubated with primary antibodies overnight at 4°C. […]
# Y. pseudotuberculosis = assay type: cell-based, Yersinia pseudotuberculosis; details: 2xYT, 9-120 µM, 12 h
# [6] = test system: Y. pseudotuberculosis twin arginine translocation (Tat) system; assay type: cell-based, Yersinia pseudotuberculosis; details: culture optical density, 4 and 6 h
# [7] = test system: Salmonella T3SS genes (hilA, hilD, invF, sipC, sipA, fliC); assay: mRNA quantification by qPCR of T3SS genes; assay type: cell-based, Salmonella enterica Typhimurium; details: 9 µM, 2 h and 4 h
# Description: Samples were taken after 3 h of induction. Overnight Salmonella cultures were subcultured into fresh LB with 0.3 M NaCl at 37°C in the presence of 9 μM 4EpDN, 4EpDN 2Sar, or equivalent DMSO. Samples were taken after 2 h and 4 h of induction. Samples were stored in RNAprotect reagent (Qiagen) and processed within a week. Total RNA was isolated using an RNAeasy kit (Qiagen) according to the manufacturer’s instructions, followed by two rounds of Turbo DNase (Thermo Fisher scientific) treatment. A total of 2 μg of RNA was used to make cDNA, and quantitative PCRs (qPCRs) were run with SYBR green PCR master mix (Applied Biosystems). DNA helicase (dnaB) and 16S rRNA genes were used as a reference for P. aeruginosa and Salmonella samples, respectively. Two to three technical replicates were averaged for each sample. Results were analyzed using Bio-Rad CFX software.
# [8] = test system: P. aeruginosa PA103 T3SS (ExoU secretion); assay type: cell-based, Pseudomonas aeruginosa
# [9] = test system: Salmonella enterica Typhimurium SPI-1 T3SS (SipA, SipC secretion); assay type: cell-based
# [10] = test system: Salmonella enterica Typhimurium SPI-1 T3SS; details: culture-based secretion assay; ref [102]; read-out: IC50, SipC secretion; cited from earlier work
# flagella (Fla), fliC = test system: flagella (Fla), fliC; design: key: NE: No effect observed; details: ref [102]; cited from earlier work
compound,measurement,setting,value
"CCCN1CC(=O)N(Cc2ccccc2)CC(=O)N[C@@H](CC(C)C)C(=O)N[C@@H]([C@@H](C)CC)C(=O)N[C@H](CC(C)C)C(=O)N[C@H](Cc2ccccc2)C1=O [4EpDN, 4-EpD1,2N] (cyclo(I[dL][dF][NPrGly][Nphe]L))",Fla fliC (Table 2),[1],NE^d
same,concentration inhibiting FliC secretion,[1],≥ 60 µM
same,bacterial viability in broth culture,P. aeruginosa (PAO1),did not affect bacterial viability
same,IC50,[2],16100 nM
same,"secretion of YspF, in words",[2],inhibited secretion of YspF in a dose-dependent manner
same,inhibition of ExsE secretion,[3]; 9 µM,did not significantly inhibit
same,inhibition of ExsE secretion,[3]; 60 µM,~40%
same,"lowest known inhibitory concentration (∼), YopE secretion","[4]; Table 2, Ysc, culture-based secretion assay",∼7.5 YopE^b μM
same,"T3SS effector secretion inhibited, fold",[4]; same concentration as YscF staining (60 μM),4 fold
same,solubility kinetic,Kinetic solubility,13 µM
same,solubility,Kinetic solubility; DMEM (no antibiotics),12 µM
same,solubility,Kinetic solubility; M9,10 µM
same,inhibition of formation of infectious progeny,"[5]; 9 μM, EBs collected at 48 hpi, fresh monolayers 24 h",~98%
same,decrease of primary inclusion formation,"[5]; 9 μM, HeLa cells, 24 hpi",~50%
same,"lowest known inhibitory concentration (∼), cell-based infection assay, Chlamydia","[5]; Table 2, Chlamydiales",∼9^c μM
same,"changes to actin cytoskeleton, Golgi network, endoplasmic reticulum, microtubule network",HeLa cells,did not show any gross changes
same,bacterial viability in broth culture,Y. pseudotuberculosis,did not affect bacterial viability
same,"growth of SufI-β-lactamase Tat reporter bacteria in penicillin G / Tat inhibition, in words",[6],does not inhibit the Tat secretion system
same,"expression of T3SS genes (qPCR), in words",[7],nor did it impact T3SS gene transcription
same,fold more potent than its parental compound,[8],2 fold
same,inhibition of ExoU secretion,[8]; 9 µM,~75%
same,inhibition of ExoU secretion,[8]; 60 µM,~75%
same,IC50,"[8]; read-out: IC50, inhibition of secretion of T3SS effector ExoU",3900 nM
same,IC50,"[9]; read-out: IC50, SipAC secretion (SPI-1 T3SS)",1000 nM
same,IC50,"[9]; read-out: IC50, SipC secretion",~1000 nM and ~800 nM
CCCCCCCC(=O)c1c(O)cc(O)cc1CC(=O)OCC [Cytosporone B],IC50,[10],6250 nM
same,Fla fliC,"flagella (Fla), fliC",NE^d
